Measured values as given in paper PMC4757794 (2016).

Tests used:
[1] = test system: matched 17-mer dsDNA (DNA, duplex) GCGCCGTCGTCCATGTG/CACATGGACGACGGCGC; test: emission titration; settings: 50 mM NaCl; 2 mM Tris, pH 7.5; 2.8-fold emission increase
[2] = test system: hairpin matched DNA (DNA, hairpin) GGCAGGCATGGCTTTTTGCCATGCCTGCC; test: emission titration
[3] = test system: CC mismatched 17-mer dsDNA (DNA, mismatch bulge abasic) GCGCCGTCGTCCATGTG/CACATGCACGACGGCGC; test: emission titration; settings: 50 mM NaCl; 2 mM Tris, pH 7.5; 27.5-fold emission increase
[4] = test system: hairpin DNA oligomer with a CC mismatch (DNA, mismatch bulge abasic) GGCAGGCATGGCTTTTTGCCATCCCTGCC; test: emission titration
[5] = test system: 27-mer abasic dsDNA AP_T (DNA, mismatch bulge abasic, abasic at 13 of strand 2) GACCAGCTTATCATTCCTAGATAAGCG/CGCTTATCTAGGNATGATAAGCTGGTC; test: emission titration; settings: 50 mM NaCl; 2 mM Tris, pH 7.5; 5 μM 1c; 21.1-fold emission increase
[6] = test system: CC mismatched DNA (ITC) (DNA, mismatch bulge abasic) GCGCCGTCGTCCATGTG/CACATGCACGACGGCGC; test: ITC
[7] = test system: normal (matched) 27-mer dsDNA (DNA, duplex) GACCAGCTTATCATCCCTAGATAAGCG/CGCTTATCTAGGGATGATAAGCTGGTC; test: emission titration; settings: 50 mM NaCl; 2 mM Tris, pH 7.5; 5 μM 1c; 4.7-fold emission increase
[8] = test system: self-complementary CC mismatched DNA 5′-C1G2G3A4C5T6C7C8G9-3′ (DNA, mismatch bulge abasic) CGGACTCCG; test: 1H NMR, NOESY, TOCSY titration; settings: 20 mM NaCl, 50 mM sodium phosphate; D2O, pH 6.1, 10 °C; shifts at A4 and C5, mismatched site
[9] = test system: 27-mer abasic dsDNA AP_A (DNA, mismatch bulge abasic, abasic at 13 of strand 2) GACCAGCTTATCATACCTAGATAAGCG/CGCTTATCTAGGNATGATAAGCTGGTC; test: emission titration; settings: 50 mM NaCl; 2 mM Tris, pH 7.5; 5 μM 1c; 14.8-fold emission increase
[10] = test system: 27-mer abasic dsDNA AP_G (DNA, mismatch bulge abasic, abasic at 13 of strand 2) GACCAGCTTATCATGCCTAGATAAGCG/CGCTTATCTAGGNATGATAAGCTGGTC; test: emission titration; settings: 50 mM NaCl; 2 mM Tris, pH 7.5; 5 μM 1c; 14.4-fold emission increase
[11] = test system: 27-mer dsDNA with CC mismatch (DNA, mismatch bulge abasic) GACCAGCTTATCATCCCTAGATAAGCG/CGCTTATCTAGGCATGATAAGCTGGTC; test: emission titration; settings: 50 mM NaCl; 2 mM Tris, pH 7.5; 5 μM 1c; comparison DNA of abasic titration
[12] = test system: 27-mer abasic dsDNA AP_C (DNA, mismatch bulge abasic, abasic at 13 of strand 2) GACCAGCTTATCATCCCTAGATAAGCG/CGCTTATCTAGGNATGATAAGCTGGTC; test: emission titration; settings: 50 mM NaCl; 2 mM Tris, pH 7.5; 5 μM 1c; 32.2-fold emission increase
[13] = test system: DNA without an abasic site (melting temperature experiment) (DNA, duplex) GACCAGCTTATCATCCCTAGATAAGCG/CGCTTATCTAGGGATGATAAGCTGGTC; test: melting temperature; settings: Tm stated not affected
[14] = test system: matched DNA (ITC) (DNA, duplex) GCGCCGTCGTCCATGTG/CACATGGACGACGGCGC; test: ITC
[15] = 50 mM NaCl, 2 mM Tris, pH 7.5, 0.1 mM complex titrated with 0.75 mM DNA

For CCCCN1[C]N(Cc2ccccc2)C=C1.[Pt+2].[c-]1ccccc1-c1cccc(-c2ccccn2)n1, the binding [1] was “weak”, the binding ([2]; 50 mM NaCl, 2 mM Tris, pH 7.5, 5 μM 1c, 2.6-fold emission increase at 1 equivalent) was “weak” and the binding [3] was “yes”. The binding ([4]; 50 mM NaCl, 2 mM Tris, pH 7.5, 5 μM 1c, 26.4-fold emission increase at 1 equivalent) was “yes”, the binding [5] was “yes” and the Kd [6, 15] was 51.5 ± 8.0 µM. For the same molecule, the binding [7] was “weak”, the binding [8] was “yes” and the binding [9] was “yes”. The binding [10] was “yes”, the binding [11] was “yes” and the binding [12] was “yes”.
With C1CCC(P(CP(C2CCCCC2)C2CCCCC2)C2CCCCC2)CC1.[Pt+2].[Pt+2].[c-]1ccccc1-c1cccc(-c2ccccn2)n1.[c-]1ccccc1-c1cccc(-c2ccccn2)n1 the binding ([2]; 50 mM NaCl, 2 mM Tris, pH 7.5, 5 μM 2, 8.2-fold emission increase at 0.5 equivalents) was “weak”, the binding ([4]; 50 mM NaCl, 2 mM Tris, pH 7.5, 5 μM 2, 50-fold emission increase at 0.5 equivalents) was “yes” and the binding [13] was “no”. The Kd [6, 15] was 7.0 ± 2.1 µM and the binding ([14]; 50 mM NaCl, 2 mM Tris, pH 7.5, 0.1 mM complex titrated with 0.75 mM DNA, Kd stated negligible) was “no”.
CN1[C]N(C)C=C1.[Pt+2].[c-]1ccccc1-c1cccc(-c2ccccn2)n1 was tested, and the binding ([2]; 7.1-fold emission increase) was “yes”, the binding ([4]; 8.5-fold emission increase) was “yes” and the Kd [6, 15] was 66.2 ± 15.7 µM. For the same molecule, the Kd [14, 15] was 56.4 ± 13.6 µM.
In the case of CC[n+]1c(-c2ccccc2)c2cc(N)ccc2c2ccc(N)cc21, the binding ([2]; 14.1-fold emission increase) is reported as “yes”, the binding ([4]; 12.7-fold emission increase) is reported as “yes” and the Kd ([6]; Na+ 50 mM (Tris 2 mM buffer)) is reported as 1.32 ± 0.24 µM. It also gave a Kd ([14]; Na+ 50 mM (Tris 2 mM buffer)) of 1.60 ± 0.28 µM.
